Five compounds from patent publication US8207139B2, “Function of GPR4 in vascular inflammatory response to acidosis and related methods” (priority 2009, dated 2012) can be followed below.

Entries after “also recorded” stand apart in the source; their conditions may differ.

The subject of test [1] is acidosis/GPR4-induced HUVEC cell adhesion. The experiment in a line: HUVEC-U937 monocyte cell adhesion assay. In kind it is cell-based, human. Conditions: treatment with cAMP pathway activators, attachment of U937 monocytes as readout.
The test system is the same in test [2]. The experiment in a line: HUVEC-U937 monocyte cell adhesion assay. In kind it is cell-based, human. The following applies: HUVEC cells treated with acidic pH, attachment of U937 monocytes as readout. As for the experimental part: Cell adhesion assay: To examine the adhesion of HUVEC endothelial cells and to model the interaction between endothelium and immune cells, the HUVEC-U937 monocyte adhesion assay was used as a functional readout. […] In brief, HUVEC endothelial cells were cultured in a 24-well plate to form a confluent monolayer, and treated with EGM-2/HEM media at various pHs for 5 to 15 hours. After the pH treatment, HUVEC cells were washed once with DMEM medium (pH 7.4), and then U937 monocytic cells resuspended in DMEM with 10% fetal bovine serum (FBS) were added to the HUVEC monolayer to allow adhesion for 1 hour at pH 7.4. Non-adherent cells were removed by gently washing several times with DMEM medium.
Effects on HUVEC cell adhesion: HUVEC cells with GPR4 siRNA or control siRNA were treated with different pHs, and the U937-HUVEC cell adhesion assay was performed.

On to `CO[C@@H]1[C@@H]2OP(=O)(O)OC[C@H]2O[C@H]1n1c(Sc2ccc(Cl)cc2)nc2c(N)ncnc21` [8-CPT-2Me-cAMP], for which, in test [1], the “effect on adhesion of HUVEC cells” value is listed as “increases”.
For `Nc1ncnc2c1ncn2C1CCCO1` (centres unmarked) [SQ 22536], the “effect on acidosis/GPR4-induced HUVEC cell adhesion” value in test [2] was “abolishes; also recorded: reduces”.
Still for that read-out and setting: the entry for `O=S(=O)(NCCNC/C=C/c1ccc(Br)cc1)c1cccc2cnccc12` [H-89] is “did not affect; also recorded: does not affect”.
Consider pertussis toxin, for which the “effect on adhesion of HUVEC cells” value in test [1] is listed as “enhanced; also recorded: increases”.
`C[C@H]1O[C@@H](n2cnc3c(N)ncnc32)C[C@@H]1O` [2′,5′-dideoxyadenosine]: the “effect on acidosis/GPR4-induced HUVEC cell adhesion” value in test [2] is recorded as “reduced; also recorded: abolishes; also recorded: diminishes”.
